The values below come from ChEMBL document CHEMBL5108052, “Histone Deacetylase and Enhancer of Zeste Homologue 2 Dual Inhibitors Presenting a Synergistic Effect for the Treatment of Hematological Malignancies” (J Med Chem, 2022).

The subject of assay [1] is MV4-11. Nature of the assay: Induction of mitochondrial membrane potential in human MV4-11 cells assessed as reduction in red fluorescence intensity at 0.4 uM measured after 48 hrs by JC1 staining-based flow cytometry analysis (reference value: 98.8%). It is filed as functional. The arrangement: scale not given: the % may be the effect or the level left. In general terms: Flow cytometry measures light scatter and fluorescence of single cells or particles in a stream.

Assay [2] addresses T1, Polyamine deacetylase HDAC10 (Homo sapiens, UniProt Q969S8).
T1 sequence (Q969S8 whole entry): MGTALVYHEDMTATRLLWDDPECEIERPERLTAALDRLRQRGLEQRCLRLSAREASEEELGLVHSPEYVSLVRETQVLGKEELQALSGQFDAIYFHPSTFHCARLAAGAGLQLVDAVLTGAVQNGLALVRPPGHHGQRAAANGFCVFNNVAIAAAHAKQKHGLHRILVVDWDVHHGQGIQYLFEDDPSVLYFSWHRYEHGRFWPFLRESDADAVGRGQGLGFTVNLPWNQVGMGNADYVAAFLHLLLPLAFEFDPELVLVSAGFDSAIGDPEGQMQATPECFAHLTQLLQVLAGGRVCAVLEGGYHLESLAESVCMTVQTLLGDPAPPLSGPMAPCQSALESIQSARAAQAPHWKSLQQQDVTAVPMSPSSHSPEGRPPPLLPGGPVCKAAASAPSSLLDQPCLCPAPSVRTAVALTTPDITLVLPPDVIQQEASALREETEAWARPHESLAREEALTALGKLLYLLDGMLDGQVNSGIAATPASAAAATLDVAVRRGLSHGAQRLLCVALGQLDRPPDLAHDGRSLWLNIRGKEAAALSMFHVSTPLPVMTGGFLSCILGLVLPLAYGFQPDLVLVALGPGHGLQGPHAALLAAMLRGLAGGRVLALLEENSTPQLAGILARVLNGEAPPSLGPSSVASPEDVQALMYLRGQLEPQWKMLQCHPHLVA
Kind of assay: Inhibition of HDAC10 (unknown origin) incubated for 2 hrs by Multimode microplate reader analysis.

The test system of assay [3] is MV4-11. Kind of assay: Induction of apoptosis in human MV4-11 cells assessed as early apoptotic cells at 0.1 uM measured after 48 hrs by Annexin V/7-AAD-dual staining based flow cytometric analysis (reference value: 2.2 %). It is filed as functional.
Assay [4] concerns the target Histone deacetylase 9 (Homo sapiens, UniProt Q9UKV0). Kind of assay: Inhibition of HDAC9 (unknown origin) incubated for 2 hrs by Multimode microplate reader analysis.
The test system of assay [5] is MV4-11. Nature of the assay: animal or person. Format: functional, Homo sapiens. As to conditions: Mus musculus, MV4-11, 480 h, route ip, time 20 day, read-out: TGI.
Assay [6] is filed under the species Homo sapiens. The settings on record: time 90.0 sec.

Chain of Histone deacetylase 9 (Q9UKV0 whole entry): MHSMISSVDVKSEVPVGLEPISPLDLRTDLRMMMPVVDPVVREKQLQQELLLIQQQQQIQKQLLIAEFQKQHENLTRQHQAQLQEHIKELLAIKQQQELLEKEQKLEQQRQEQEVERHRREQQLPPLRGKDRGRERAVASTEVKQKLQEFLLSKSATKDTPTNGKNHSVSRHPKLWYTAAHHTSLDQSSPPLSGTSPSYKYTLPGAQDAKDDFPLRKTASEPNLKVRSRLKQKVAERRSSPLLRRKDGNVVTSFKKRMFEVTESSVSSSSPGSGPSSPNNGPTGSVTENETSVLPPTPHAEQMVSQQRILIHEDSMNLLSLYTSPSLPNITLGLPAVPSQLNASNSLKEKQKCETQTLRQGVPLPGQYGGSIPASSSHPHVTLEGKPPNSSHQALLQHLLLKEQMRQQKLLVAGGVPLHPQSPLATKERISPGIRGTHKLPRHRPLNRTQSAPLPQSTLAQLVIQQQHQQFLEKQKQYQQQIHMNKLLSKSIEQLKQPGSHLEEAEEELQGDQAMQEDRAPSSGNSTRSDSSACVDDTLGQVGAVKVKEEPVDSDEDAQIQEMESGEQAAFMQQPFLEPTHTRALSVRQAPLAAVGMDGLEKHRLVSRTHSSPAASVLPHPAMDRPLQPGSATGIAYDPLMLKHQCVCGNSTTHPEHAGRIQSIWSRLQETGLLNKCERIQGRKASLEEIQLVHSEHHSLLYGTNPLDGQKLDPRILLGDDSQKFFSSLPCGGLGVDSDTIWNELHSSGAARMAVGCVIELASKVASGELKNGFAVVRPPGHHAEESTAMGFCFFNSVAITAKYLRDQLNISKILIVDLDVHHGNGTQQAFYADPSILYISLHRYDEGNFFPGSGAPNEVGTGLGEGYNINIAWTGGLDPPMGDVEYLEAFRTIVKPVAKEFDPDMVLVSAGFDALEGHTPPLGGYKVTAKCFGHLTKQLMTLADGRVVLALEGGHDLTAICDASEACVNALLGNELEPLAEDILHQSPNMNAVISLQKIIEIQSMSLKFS

By IC50 is commonly meant the concentration that gives 50% inhibition. Regarding `Cc1cc(C)c(CNC(=O)c2cc(-c3ccc(N4CCN(c5ncc(C(=O)NO)cn5)CC4)nc3)cc3c2cnn3C(C)C)c(=O)[nH]1`, the Activity in assay [1] stood at 72%; in assay [3] it was 5.4%. The IC50 in assay [2] was 1.47 µM; in assay [4] it was 7.05 µM. Also, in assay [5], the inhibition in vivo at 100 mg/kg stood at 82%. For the same compound, the Ka in assay [6] was 2.18 10^5/M/s.
